According to patent publication US7638283B2, “Amyloid β protein (globular assembly and uses thereof)” (Northwestern University, priority 1997, dated 2009):

Legend:
[1] = tested on: primary astrocytes; assay: Activation of primary astrocyte cultures; assay type: cell-based
[2] = tested on: hippocampus, synaptic activity (LTP); assay: LTP assay in injected animals; assay type: in vivo, mouse
Source text: Injections of intact animals: Mice are anesthesized with urethane and placed in a sterotaxic apparatus. Body temperature is maintained using a heated water jacket pad. The brain surface is exposed through holes in the skull. Bregma and lambda positions for injection into the middle molecular layer of hippocampus are 2 mm posterior to bregma, 1 mm lateral to the midline, and 1.2-1.5 mm ventral to the brain surface. Amyloid β oligomer injections are by nitrogen puff through ˜[…] diameter glass pipettes. Volumes of 20-50 nL of amyloid β oligomer solution (180 nM of amyloid β) are given over the course of an hour. The animal is allowed to rest for varying time periods before the LTP stimulus is given.
LTP in injected animals: Experiments follow the paradigm established Routtenberg and colleagues for LTP in mice (Namgung, et al., 1995). Perforant path stimulation from the entorhinal cortex is used, with recording from the middle molecular layer and the cell body of the dentate gyrus. […] Some sections are placed on slides subbed with gelatin and others are analyzed using a free-floating protocol. […]
Wave forms are analyzed by machine as described previously (Colley, 1990, J. Neurosci.). […]

[3] = tested on: brain slice cultures lacking a functional fyn gene; assay: Brain slice cultures from mice that lack a functional fyn gene; assay type: cell-based, mouse; conditions: compared to vehicle controls
Description: (§1) An adult mouse is sacrificed by carbon dioxide inhalation, followed by rapid decapitation. The head is emersed in cold, sterile dissection buffer (94 ml Gey's balanced salt solution, pH 7.2, supplemented with 2 mL 0.5M MgCl2, 2 ml 25% glucose, and 2 mL 1.0 M Hepes.), after which the brain is removed and placed on a sterile Sylgard-coated plate. The cerebellum is removed and a mid-line cut is made to separate the cerebral hemispheres. Each hemisphere is sliced separately. The hemisphere is placed with the mid-line cut down and a 30 degree slice from the dorsal side is made to orient the hemisphere. The hemisphere is glued cut side down on the plastic stage of a Campden tissue chopper (previously wiped with ethanol) and emersed in ice cold sterile buffer. Slices of 200 μm thickness are made from a lateral to medial direction, collecting those in which the hippocampus is visible. […] Cell death is measured using the LIVE/DEAD® assay kit (Molecular Probes, Eugene, Oreg.). This a dual-label fluorescence assay in which live cells are detected by the presence of an esterase that cleaves calcein-AM to calcein, resulting in a green fluorescence. Dead cells take up ethidium homodimer, which intercalates with DNA and has a red fluorescence. […] The MetaMorph image analysis system is used to quantify the number and/or area of cells showing green or red fluorescence. […]

[4] = tested on: neuronal cell cultures; assay: Neurotoxicity in neuronal cell cultures; assay type: cell-based
Description: PC12 cells are passaged at 4×10^4 cell/well on a 96-well culture plate and grown for 24 hours in DMEM+10% fetal calf serum+1% S/P/F (streptomycin, penicillin, and fungizone). Plates are treated with 200 μg/mL poly-1-lysine for 2 hours prior to cell plating to enhance cell adhesion. One set of six wells is left untreated and fed with fresh media, while another set of wells is treated with the vehicle control (PBS containing 10% 0.01 N HCl, aged o/n at RT). Positive controls are treated with triton (1%) and Na Azide (0.1%) in normal growth media. Amyloid β oligomers prepared as described in Example 1, with and without inhibitor compounds present are added to the cells for 24 hours. After the 24 hour incubation, MTT (0.5 mg/mL) is added to the cells for 2.5 hours (11 μL of 5 mg/ml stock solubilized in PBS into 100 μL of media). Healthy cells reduce the MTT into a formazan blue colored product. After the incubation with MTT, the media is aspirated and 100 μL of 100% DMSO is added to lyse the cells and dissolve the blue crystals. The plate was incubated for 15 min at RT and read on a plate reader (ELISA) at 550 nm.
HN2 cells are passaged at 4×10^4 cells/well on a 96-well culture plate and grown for 24 hours in DMEM+10% fetal calf serum+1% S/P/F (streptomycin, penicillin, and fungizone). […] The plate is incubated for 15 min at RT and read on a plate reader (ELISA) at 550 nm.

[5] = tested on: serum starved B103 cells; assay: Cell morphology by phase microscopy; assay type: cell-based, rat
Description: Cultures are grown to low density (50-60% confluence). To initiate the experiment, the cells are serum starved in F12 media for 1 hour. Cells are then incubated for 3 hours with amyloid β oligomers prepared as described in Example 1, with and without inhibitor compounds added to the cells for […]. After 3 hours, cells are examined for morphological differences or fixed for immunofluorescence labeling. Samples are examined using the MetaMorph Image Analysis system and an MRI video camera (Universal Imaging, Inc.).

[6] = Neurotoxicity of amyloid β fractions and samples (test system not specified); assay type: cell-based; conditions: supernatant compared with unfractionated amyloid β aggregated under literature conditions
[7] = tested on: hippocampal neurons; assay: Neuronal viability in injected animals (brain slices after the LTP experiment); assay type: in vivo, mouse; conditions: 20 nL injected into hippocampal region
Description: After the LTP experiment is performed, animals are allowed to remover for various times and then sacrificed using sodium pentobarbitol asesthetic and perfusion with 4% paraformaldehye. For viability studies, times of 3 hours, 24 hours, 3 days, and 7 days are used. The brain is cryoprotected with 30% sucrose and then sectioned ([…]) with a microtome. Sections are placed on slides subbed with gelatin and stained initially with cresyl violet. Cell loss is measured by counting cell bodies in the dentate gyrus, CA3, CA1, and entorhinal cortex and is correlated with dose and time of exposure of ADDLs.

[8] = tested on: hippocampal brain slice cultures; assay: Brain slice assay (LIVE/DEAD cell death); assay type: cell-based, mouse
Description: as §1

[9] = tested on: B103 cells; assay: FACScan assay for binding to intact cells; parameters: species or system rat
Description: For flow cytometry, cells are dissociated with 0.1% trypsin and plated at least overnight onto tissue culture plastic at low density. Cells are removed with cold PBS/0.5 mM EDTA, washed three times and resuspended in ice-cold PBS to a final concentration of 500,000 cells/mL. Cells are incubated in cold PBS with amyloid β oligomers prepared as described in Example 1, except that 10% of the amyloid β is an amyloid β 1-42 analog containing biocytin at position 1 replacing aspartate. Oligomers with and without inhibitor compounds present are added to the cells for 24 hours. The cells are washed twice in cold PBS to remove free, unbound amyloid β oligomers and resuspended in a 1:1,000 dilution of avidin conjugated to fluorescein and incubated for one hour at 4° C. with gentle agitation. Cells are analyzed by a Becton-Dickinson Fluorescence Activated Cell Scanner (FACScan). 10,000 or 20,000 events are collected for both forward scatter (size) and fluorescence intensity, and the data are analyzed by Consort 30 software (Becton-Dickinson). An alternative procedure uses amyloid β-specific antibodies and fluorescent secondary antibody instead of avidin, eliminating the need to incorporate 10% of the biotynylated amyloid β analog. FIG. 2 illustrates the ADDL-cell binding FACS analysis, and FIG. 3 illustrates the utility of the FACS assay for identification of ADDL-blocking compounds.

[10] = tested on: fyn kinase; assay: fyn kinase activity in B103 cells; assay type: cell-based, rat

| Substance | activation of astrocytes [1] | mRNA for IL-1, inducible nitric oxide synthase, apo E, Apo J and α1-antichymotrypsin in astrocytes [1] | LTP consolidation phase, synaptic activity as cell body spike amplitude ([2]; 20 nL injected into hippocampal region 60-70 minutes prior to LTP, over the subsequent 2 hours, compared with control animals) | LTP stimulation phase ([2]; 20 nL injected into hippocampal region of adult mouse 60-70 minutes prior to LTP) | neurotoxicity in brain slice cultures from mice lacking a functional fyn gene [3] | neurotoxicity in neuronal cell cultures [4] | morphology of serum starved B103 cells [5] | neurotoxicity of amyloid β fractions/samples [6] | cell death in brain slices after the LTP experiment [7] | neurotoxicity in brain slice cultures ([8]; supernatant of amyloid β 1-42 incubated in F12 at 4° C., Live/Dead fluorescence assay) | receptor binding of ADDLs to B103 cells ([9]; 10% biotinylated amyloid β 1-42, fluorescent avidin conjugate, FACS) | fyn kinase activity in B103 cells [10] | blocking of the neurotoxic effects of ADDLs in the hippocampal brain slice assay ([8]; at 10 μM) | blocking of ADDL binding in the receptor assay ([9]; at 10 μM) |
| --- | --- | --- | --- | --- | --- | --- | --- | --- | --- | --- | --- | --- | --- | --- |
| ADDLs: amyloid β peptide assembled into non-fibrillar oligomeric structures; soluble globular assemblies of amyloid β 1-42 | become activated | become elevated | significant, continuing decline in synaptic activity | identical with saline control injections | no increased neurotoxicity | highly neurotoxic | rapid morphological change | significantly higher neurotoxicity | no cell death had occurred | highly neurotoxic | saturable | activate fyn kinase activity | – | – |
| amyloid β 1-40 [reference compound] | – | – | – | – | – | – | – | – | – | – | – | – | capable of blocking the neurotoxic effects of ADDLs | capable of blocking ADDL binding |
